The subject of assay [1] is PDR Acinetobacter baumannii YQ4. The experiment in a line: microbe, parasite or virus in culture. In kind it is cell-based. On the procedure: Strain stocks were maintained at −80°C in 10% glycerol. Bacteria were streaked on fresh plates before each experiment. Most of them were cultured in LB broth containing 10 g/L NaCl at 37°C, except for Mycobacteria in 7H9 broth and Enterococcus in BHI broth. Porphyromonas gingivalis was cultured in BHI broth supplemented with 1 μg/ml vitamin k1, 5 μg/ml hemin, and 5 mg/ml L-cysteine hydrochloride at 37°C in the anaerobic chamber. The minimal inhibitory concentrations (MICs) of antimicrobials were determined using the microdilution method in the corresponding broth.
The pandrug-resistant A. baumannii YQ4 was collected from the clinical laboratory of the second hospital in Nanjing. The complete genome was sequenced by Nanopore, and the data were deposited in the GenBank with accession number CP053033.

In assay [2] the test system is PDR A. baumannii strain YQ4. The experiment in a line: checkerboard synergy, fractional inhibitory concentration (FIC). To be noted: checkerboard method, 37°C, 20 h, two independent experiments. It is filed as cell-based, Acinetobacter baumannii.
The next assay has as its system Escherichia coli. Conditions: cited from earlier work. The text has this: (§1) Supplement Table_1.DOCX, table 1: Table S1. Antibacterial effect of ApoE-derived peptides. | column: MIC (μM) || However, the current pipeline of novel antibiotic development is stagnant, which could not keep pace with these evolving pathogens. The pharmaceutical field turns to seek non-conventional anti-infective agents. The antimicrobial peptides (AMPs) have drawn a lot of attention as novel chemotherapeutic candidates because of their unique mechanisms of action (Mahlapuu et al., [2016]). It is known that the sources of AMPs are diverse, ranging from prokaryotes to humans (Zhang and Gallo, [2016]). One of the most promising AMPs is the protein mimetic peptide, which originates from a functional protei ...

A further assay concerns Pseudomonas aeruginosa. To be noted: cited from earlier work.
Source text: as §1

The next assay has as its system Staphylococcus aureus. Conditions: cited from earlier work. The text has this: (§2) Supplement Table_1.DOCX, table 1: Table S1. Antibacterial effect of ApoE-derived peptides. | column: MIC (μM)
A further assay has as its system Acinetobacter baumannii. To be noted: ref (1); cited from earlier work.
Source text: as §1

The next assay has as its system Enterococcus faecium. Conditions: ref (1); cited from earlier work.
Source text: as §2

The next assay deals with Klebsiella pneumoniae. To be noted: cited from earlier work.
Source text: as §2

The next assay concerns A. baumannii. Conditions: ref De Breij et al., [2018], cited from earlier work. The procedure: The major challenge for the therapeutic application of AMP is the degradation or inactivation in plasma (Dijksteel et al., [2021]). The bactericidal efficacy of COG1410 was further assessed in plasma. The LC99.9 values of COG1410 in PBS and 50% pooled plasma were 1.4 and 5.6 μM, respectively. This was even better than LL-37-derived AMP, SAAP-148, of which the corresponding LC99.9 values were 1.6 and 12.8 μM, against A. baumannii, respectively (De Breij et al., [2018]).

The subject of assay [3] is A. baumannii YQ4. The experiment in a line: scanning electron microscopy (SEM) of treated cells. It is filed as cell-based, Acinetobacter baumannii.
Method: The log-phase culture of A. baumannii YQ4 was prepared as described above, harvested, and washed once with PBS. The pellets were suspended in PBS supplemented with 1 × COG1410 (16 μg/ml) or 1 × polymyxin B (16 μg/ml) and incubated at 37°C for 30 min. The untreated culture was used as a positive control to observe the morphology of the intact cell. […] After washing three times with PBS, the cells were post-fixed in 1% osmium at 4 °C for 1 h. After washing in distilled water for 1 h, the bacteria were dehydrated in the ascending concentrations of ethanol. Finally, these samples were transferred to ThermoFisher Quattro SEM for image collection after tert-butanol freeze-drying and sputter coating.
The subject of assay [4] is A. baumannii YQ4. Kind of assay: Live/Dead BacLight SYTO-9/PI staining, confocal microscopy. It is filed as cell-based, Acinetobacter baumannii.
Method: The damage to the cytoplasmic membrane was determined as described previously (Farkas et al., [2017]), with the Live/Dead BacLight bacterial viability kit (Invitrogen L7012). The log-phase culture of A. baumannii YQ4 was washed two times and suspended in PBS with the final OD600 of 0.1. […] Then, the cells were stained with 7.5 μM SYTO-9 and 30 μM propidium iodide (PI) in dark for 15 min. In total, 5 μl of culture was spotted on a clean slide coated with a thin layer of 1% agarose. The fluorescence was observed by Olympus FV3000 confocal laser scanning microscope. For SYTO-9, the excitation and emission were 483 and 503 nm, respectively. For PI, the excitation and emission were 493 and 636 nm, respectively.
The test system of assay [5] is A. baumannii YQ4. Kind of assay: ATP leak assay. It is filed as cell-based, Acinetobacter baumannii. To be noted: 16 μg/ml COG1410, 16 μg/ml polymyxin B or 32 μg/ml tigecycline (1× MIC), PBS, 37°C, 30 min. On the procedure:
ATP leak assay was performed using the Enhanced ATP Assay Kit of Beyotime ([…]) according to the manufacturer's manual. […] The supernatant was harvested and used for the measurement of ATP levels. In total, 100 μl of supernatant was mixed with 100 μl of working solution, and the chemiluminescence was measured by using a Biotek Synergy H1 plate reader. The untreated sample was set as a negative control. The experiments were performed in triplicate.

For another assay, the system named is A. baumanii YQ4. The experiment in a line: induction of resistance through serial passage. To be noted: sub-MIC exposure, 55 passages.
In assay [6] the test system is A. baumannii YQ4. Kind of assay: transmission electron microscopy (TEM) of treated cells.
The mark [7] stands for this setting: Acinetobacter baumannii, Table 2, agent alone, PDR A. baumannii strain YQ4, unit not in the table, μg/ml, read-out: MIC.

Converted amounts (≈) assume the structure as drawn. “And” between values parts separate entries of the source, which are not always exact repeats. Identical values can stand only once. Like-named read-outs stand apart in the source and are kept apart here.

On to `NCC[C@H](O)C(=O)N[C@@H]1C[C@H](N)[C@@H](O[C@H]2O[C@H](CN)[C@@H](O)[C@H](O)[C@H]2O)[C@H](O)[C@H]1O[C@H]1O[C@H](CO)[C@@H](O)[C@H](N)[C@H]1O` [AMI, amikacin], for which the MIC in assay [1] (setting [7]) is greater than 1020 µg/mL. Moreover, in assay [2], the “FIC with COG1410” value is reported as greater than 1.

In assay [1] (Acinetobacter baumannii), `CC(C)(O/N=C(\C(=O)N[C@@H]1C(=O)N2C(C(=O)[O-])=C(C[n+]3ccccc3)CS[C@H]12)c1csc(N)n1)C(=O)O` [CAZ, ceftazidime] had an MIC of 512 µg/mL (≈ 937 µM). Further, in assay [2], the “FIC with COG1410” value came out at 0.31.

For `O=C(O)c1cn(C2CC2)c2cc(N3CCNCC3)c(F)cc2c1=O` [CIP, ciprofloxacin], the MIC in assay [1] (Acinetobacter baumannii) was found to be 256 µg/mL (≈ 773 µM). Besides, in assay [2], the “FIC with COG1410” value amounted to 0.8.

On to `C[C@@H](O)[C@H]1C(=O)N2C(C(=O)O)=C(S[C@@H]3CN[C@H](C(=O)N(C)C)C3)[C@H](C)[C@H]12` [MERO, meropenem], for which the MIC in assay [1] (setting [7]) came out at 32 µg/mL (≈ 83.4 µM). Moreover, the “FIC with COG1410” value in [2] came to 0.56.

`CN(C)[C@@H]1C(O)=C(C(N)=O)C(=O)[C@@]2(O)C(O)=C3C(=O)c4c(O)cccc4[C@@](C)(O)[C@H]3C[C@@H]12` [TET, tetracycline]: in assay [1] (setting [7]), the MIC came to 1020 µg/mL (≈ 2300 µM). Also, in assay [2], the “FIC with COG1410” value stood at 0.31.

For `CN(C)c1cc(NC(=O)CNC(C)(C)C)c(O)c2c1C[C@H]1C[C@H]3[C@H](N(C)C)C(O)=C(C(N)=O)C(=O)[C@@]3(O)C(O)=C1C2=O` [TGC, tigecycline], in [1] (setting [7]), the MIC worked out at 32 µg/mL (≈ 54.6 µM). In assay [2], the “FIC with COG1410” value amounted to 1.06.

In the case of “ApoE130−162: fragment containing the receptor-binding domain of ApoE (130–162) (TEELRVRLASHLRKLRKRLLRDADDLQKRLAVY; UniProt P02649 148-180, looked up, fragment)”, the “antibacterial activity, in words” value with Escherichia coli (ref Azuma et al., [2000]) is recorded as “active”; with Pseudomonas aeruginosa (compared with Escherichia coli, ref Azuma et al., [2000]), “to a lesser extent”.

As to “LRKLRKRLL [ApoE141-149, ApoE-derived peptide, location 141-149]”, the “MIC, Pa” value in the assay with Pseudomonas aeruginosa (ref (3)) is 30 µM. Moreover, the “MIC, Sa” value in the assay on Staphylococcus aureus (ref (3)) was “void (“void” indicates that the MIC is more than 100 μM)”.

With “LRKLRKRLLLRKLRKRLL [ApoEp, ApoE-derived peptide, locations 141-149+141-149]”, in the assay on Pseudomonas aeruginosa (ref (1, 3)), the “MIC, Pa” value is 5 µM. For the same molecule, the “MIC, Sa” value in the assay with Staphylococcus aureus (ref (1, 3)) was 35 µM.

“LRKLRKRLVRLASHLRKLRKRLL [ApoE23, ApoE-derived peptide, locations 141-148+135-149]”: in the assay with Acinetobacter baumannii, the “MIC, Ab” value was 2 µM and 2.0 µM. For the same molecule, the “MIC, Ec” value in the assay with Escherichia coli (ref (1)) was 2.0 µM. In the assay on Pseudomonas aeruginosa (ref (1)), the “MIC, Pa” value is 2.7 µM. In addition, the “MIC, Ef” value in the assay on Enterococcus faecium is “void (“void” indicates that the MIC is more than 100 μM)”. Besides, in the assay with Staphylococcus aureus (ref (1)), the “MIC, Sa” value was 5.4 µM.

For the molecule “LRVRLASHLRKLRKRLL [COG133, ApoE-derived peptide, 133–149 of ApoE]”, the “MIC, Pa” value with Pseudomonas aeruginosa (ref (5)) was 25/50. Besides, the “MIC, Kp” value with Klebsiella pneumoniae (ref (5)) was 3.12 µM. The “MIC, Sa” value in the assay on Staphylococcus aureus (ref (5)) is “void (“void” indicates that the MIC is more than 100 μM)”.

On to “LRVRLASHLRKLRKRLLR [sApoE133-150, ApoE-derived peptide, location 133-150]”, for which the “MIC, Pa” value with Pseudomonas aeruginosa (ref (5)) is recorded as 25/50. The “MIC, Kp” value with Klebsiella pneumoniae (ref (5)) is 6.25 µM. The “MIC, Sa” value in the assay with Staphylococcus aureus (ref (5)) is 3.12 µM.

Regarding “LRVRLASHLRKLRKRLLRDADDLQKRLAVY [ApoE30, ApoE-derived peptide, location 133-162]”, the “MIC, Ec” value in the assay on Escherichia coli (ref (2)) was 1.3 µM. Also, the “MIC, Pa” value with Pseudomonas aeruginosa (ref (2)) is 8.1 µM. Besides, the “MIC, Sa” value in the assay with Staphylococcus aureus (ref (2)) was 16.2 µM.

Consider SAAP-148, for which the LC99.9 in the assay with A. baumannii (50% pooled plasma) was 12.8 µM; in the assay on A. baumannii (PBS), 1.6 µM.

Consider “WRKWRKRWWWRKWRKRWW [ApoEp-W, ApoE-derived peptide, locations 141-149+141-149]”, for which the “MIC, Kp” value with Klebsiella pneumoniae (ref (4)) was less than 3.3 µM. For the same molecule, the “MIC, Sa” value in the assay with Staphylococcus aureus (ref (4)) is less than 3.3 µM.

With gentamycin [GM], the MIC in assay [1] (Table 2, agent alone, PDR A. baumannii strain YQ4, unit not in the table, μg/ml) is >1,024 μg/ml. Besides, the “FIC with COG1410” value in assay [2] is reported as greater than 1.

Consider polymyxin B [reference compound], for which, in the assay with A. baumannii YQ4 [3], the “cell morphology by SEM” value was “cell lysis and release of cell contents”. Besides, the “SYTO-9/PI staining of treated cells” value in the assay on A. baumannii YQ4 [4] is reported as “red fluorescence”. Also, the “ATP leak (extracellular ATP)” value in the assay on A. baumannii YQ4 [5] was “released more ATP compared to untreated cells”. For the same molecule, in the assay with A. baumanii YQ4, the “increase of MIC after serial passage” value was 64 fold. Further, in the assay with A. baumannii YQ4 [6], the “cell membrane integrity by TEM” value is listed as “collapse of cell walls in most of the cells”.

Source of the values: PMC9445589, “Apolipoprotein E mimetic peptide COG1410 combats pandrug-resistant Acinetobacter baumannii” (Frontiers in Microbiology, 2022).
